Data from patent US9695155B2, “Herbicidal substituted pyrimidinyloxy benzene compounds” (E. I. DU PONT DE NEMOURS AND COMPANY, priority 2013, dated 2017).

What was measured:
[1] = test system: johnsongrass; assay: Test C postemergence; type: in vivo, Sorghum halepense
Procedure, shortened: (§1)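 Injury was assessed visually against controls 13 to 15 days after application, with 0 meaning no effect and 100 full control; missing entries are shown as a dash. Preemergence sprays hit seeded loam–sand soil, postemergence sprays hit 1- to 4-leaf plants.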

[2] = test system: waterhemp; assay: Test C postemergence; type: in vivo, Amaranthus rudis
Procedure, shortened: as §1

[3] = test system: large (Lg) crabgrass; assay: Test A preemergence; type: in vivo, Digitaria sanguinalis; settings: 1000 g ai/ha, 0 to 100 scale, 0 no effect, 100 complete control, approx. 10 days
Procedure, shortened: (§2)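 Injury scores run from 0, no effect, to 100, complete control, judged by eye against untreated plants roughly 10 days after treatment. Chemicals carried a surfactant in a non-phytotoxic solvent and went onto loam–sand soil preemergence or onto one- to two-leaf seedlings postemergence.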

[4] = test system: wild oat; assay: Test C postemergence; type: in vivo, Avena fatua
Procedure, shortened: as §1

[5] = test system: chickweed; assay: Test C postemergence; type: in vivo, Stellaria media
Procedure, shortened: as §1

[6] = test system: blackgrass; assay: Test C postemergence; type: in vivo, Alopecurus myosuroides
Procedure, shortened: as §1

[7] = test system: giant foxtail; assay: Test A preemergence; type: in vivo, Setaria faberii; settings: 1000 g ai/ha, 0 to 100 scale, 0 no effect, 100 complete control, approx. 10 days
Procedure, shortened: as §2

[8] = test system: large (Lg) crabgrass; assay: Test C postemergence; type: in vivo, Digitaria sanguinalis
Procedure, shortened: as §1

[9] = test system: morningglory; assay: Test A postemergence; type: in vivo, Ipomoea spp.; settings: 1000 g ai/ha, 0 to 100 scale, 0 no effect, 100 complete control
Procedure, shortened: as §2

[10] = test system: yellow nutsedge; assay: Test C postemergence; type: in vivo, Cyperus esculentus
Procedure, shortened: as §1

[11] = test system: velvetleaf; assay: Test A preemergence; type: in vivo, Abutilon theophrasti; settings: 1000 g ai/ha, 0 to 100 scale, 0 no effect, 100 complete control, approx. 10 days
Procedure, shortened: as §2

[12] = test system: Italian ryegrass; assay: Test C postemergence; type: in vivo, Lolium multiflorum
Procedure, shortened: as §1

[13] = test system: morningglory; assay: Test A preemergence; type: in vivo, Ipomoea spp.; settings: 1000 g ai/ha, 0 to 100 scale, 0 no effect, 100 complete control, approx. 10 days
Procedure, shortened: as §2

[14] = test system: giant foxtail; assay: Test C postemergence; type: in vivo, Setaria faberii
Procedure, shortened: as §1

[15] = test system: corn; assay: Test C postemergence; type: in vivo, Zea mays
Procedure, shortened: as §1

[16] = 16 g ai/ha, postemergence, 0 is no effect, 100 is complete control
[17] = 31 g ai/ha, postemergence, visual rating, scale 0 to 100 (0 no effect, 100 complete control), 13 to 15 days
[18] = 125 g ai/ha, postemergence, visual rating, scale 0 to 100 (0 no effect, 100 complete control)
[19] = Postemergence, 62 g ai/ha, scale 0 to 100 (0 no effect, 100 complete control), 13 to 15 days

In the case of `Clc1cnc(Oc2ccccc2-n2cc(Br)nn2)nc1` [Compound 223], the “Plant response rating (0 to 100), Johnsongrass” value [1, 16] is reported as 0, the “Johnsongrass plant response rating” value [1, 17] is reported as 0 and the “Plant response rating, Johnsongrass” value [1, 18] is reported as 5. For the same molecule, the “Plant response rating, Johnsongrass” value [1, 19] was 0, the “Plant response rating (0 to 100), Waterhemp” value [2, 16] was 70 and the “Waterhemp plant response rating” value [2, 17] was 60. The “Plant response rating, Waterhemp” value [2, 18] was 95, the “Plant response rating, Waterhemp” value [2, 19] was 85 and the “Crabgrass, Large plant response rating” value [3] was 100. For the same molecule, the “Plant response rating (0 to 100), Oat, Wild” value [4, 16] was 0, the “Oat, Wild plant response rating” value [4, 17] was 0 and the “Plant response rating, Oat, Wild” value [4, 18] was 5. The “Plant response rating, Oat, Wild” value [4, 19] was 0, the “Plant response rating (0 to 100), Chickweed” value [5, 16] was 35 and the “Chickweed plant response rating” value [5, 17] was 50. The “Plant response rating, Chickweed” value [5, 18] was 60, the “Plant response rating, Chickweed” value [5, 19] was 50 and the “Plant response rating (0 to 100), Blackgrass” value [6, 16] was 0. For the same molecule, the “Blackgrass plant response rating” value [6, 17] was 30, the “Plant response rating, Blackgrass” value [6, 18] was 0 and the “Plant response rating, Blackgrass” value [6, 19] was 5. The “Foxtail, Giant plant response rating” value [7] was 100, the “Plant response rating (0 to 100), Crabgrass, Large” value [8, 16] was 5 and the “Crabgrass, Large plant response rating” value [8, 17] was 5. The “Plant response rating, Crabgrass, Large” value [8, 18] was 5, the “Plant response rating, Crabgrass, Large” value [8, 19] was 5 and the “Plant response rating, Morningglory” value [9] was 100. The “Plant response rating (0 to 100), Nutsedge, Yellow” value [10, 16] was 5, the “Nutsedge, Yellow plant response rating” value [10, 17] was 5 and the “Plant response rating, Nutsedge, Yellow” value [10, 18] was 5. For the same molecule, the “Plant response rating, Nutsedge, Yellow” value [10, 19] was 5, the “Velvetleaf plant response rating” value [11] was 100 and the “Plant response rating (0 to 100), Ryegrass, Italian” value [12, 16] was 0. The “Ryegrass, Italian plant response rating” value [12, 17] was 0, the “Plant response rating, Ryegrass, Italian” value [12, 18] was 5 and the “Plant response rating, Ryegrass, Italian” value [12, 19] was 0. For the same molecule, the “Morningglory plant response rating” value [13] was 100, the “Plant response rating (0 to 100), Foxtail, Giant” value [14, 16] was 5 and the “Foxtail, Giant plant response rating” value [14, 17] was 5. For the same molecule, the “Plant response rating, Foxtail, Giant” value [14, 18] was 5, the “Plant response rating, Foxtail, Giant” value [14, 19] was 5 and the “Plant response rating (0 to 100), Corn” value [15, 16] was 5. For the same molecule, the “Corn plant response rating” value [15, 17] was 5, the “Plant response rating, Corn” value [15, 18] was 5 and the “Plant response rating, Corn” value [15, 19] was 5.
